The results in this text go back to ChEMBL document CHEMBL1139601, “Novel 2-N,N-dimethylaminomethyl-2,3,3a,12b-tetrahydrodibenzo[b,f]furo[2,3-d]oxepin derivatives displaying combined norepinephrine reuptake inhibition and 5-HT2A/2C receptor antagonism” (Bioorg Med Chem Lett, 2005).

Each structure is given as a SMILES string.

Assay [1] concerns Rattus norvegicus. The assay can be described thus: In vivo effective dose for the reversal of tryptamine-induced cyanosis in rat. Type of assay: functional.
Another assay has as its system Mus musculus. The experiment in a line: In vivo effective dose for the reversal of RO-4-1284 induced hypothermia in mice. Format: functional.
Assay [2] has as its system Rattus norvegicus. The assay can be described thus: In vivo effective for the antagonism of m-chlorophenyl-piperazine induced anxiety in rat. Type of assay: functional.
The test system of assay [3] is Rattus norvegicus. The experiment in a line: In vivo effective dose for the reversal of tryptamine-induced bilateral convulsions in rat. Format: functional.
Assay [4] deals with T1, 5-hydroxytryptamine receptor 2C (Homo sapiens, UniProt P28335).
T1 sequence (P28335 whole entry): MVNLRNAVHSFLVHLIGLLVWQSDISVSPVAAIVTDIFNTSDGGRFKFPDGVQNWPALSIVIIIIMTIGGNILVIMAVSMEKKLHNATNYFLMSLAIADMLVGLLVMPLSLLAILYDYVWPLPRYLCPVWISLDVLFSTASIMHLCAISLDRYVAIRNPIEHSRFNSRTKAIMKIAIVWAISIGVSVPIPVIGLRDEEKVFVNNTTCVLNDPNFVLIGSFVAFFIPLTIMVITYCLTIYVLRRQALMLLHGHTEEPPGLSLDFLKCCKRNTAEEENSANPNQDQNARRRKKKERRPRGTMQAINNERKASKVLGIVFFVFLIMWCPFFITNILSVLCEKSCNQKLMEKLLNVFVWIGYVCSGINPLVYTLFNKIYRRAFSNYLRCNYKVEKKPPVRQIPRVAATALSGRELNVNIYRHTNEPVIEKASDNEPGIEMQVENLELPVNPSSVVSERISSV
The assay can be described thus: In vitro binding affinity against 5-hydroxytryptamine 2C receptor using [3H]mesulergine as radioligand expressed in CHO cells. Type of assay: cell-based.

Assay [5] concerns the target 5-hydroxytryptamine receptor 2A (Homo sapiens, UniProt P28223). The assay can be described thus: In vitro binding affinity against 5-hydroxytryptamine 2A receptor using [125I]R91150 as radioligand expressed in L929 cells. Type of assay: cell-based.

5-hydroxytryptamine receptor 2A, sequence (P28223 whole entry): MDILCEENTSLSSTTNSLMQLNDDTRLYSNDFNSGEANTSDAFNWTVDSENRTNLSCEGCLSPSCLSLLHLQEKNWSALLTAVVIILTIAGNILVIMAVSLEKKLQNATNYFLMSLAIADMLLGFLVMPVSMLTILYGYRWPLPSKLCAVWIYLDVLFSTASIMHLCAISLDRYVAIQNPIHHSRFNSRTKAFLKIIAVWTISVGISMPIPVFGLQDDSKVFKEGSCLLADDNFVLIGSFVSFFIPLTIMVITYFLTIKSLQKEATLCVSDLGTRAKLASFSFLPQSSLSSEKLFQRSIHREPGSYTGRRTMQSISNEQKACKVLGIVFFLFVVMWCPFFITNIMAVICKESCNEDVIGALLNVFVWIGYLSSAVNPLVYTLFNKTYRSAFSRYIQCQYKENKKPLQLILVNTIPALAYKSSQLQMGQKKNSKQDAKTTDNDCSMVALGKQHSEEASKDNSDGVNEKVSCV

Consider `CN(C)C[C@H]1C[C@H]2c3ccccc3Oc3ccc(Cl)cc3[C@H]2O1`, for which the ED50 was 0.8 mg/kg with Rattus norvegicus [1], 0.05 mg/kg with Mus musculus, above 2.5 mg/kg with Rattus norvegicus [2] and 0.32 mg/kg with Rattus norvegicus [3]. The inhibition constant Ki in assay [4] came to 21 nM.
Consider `COc1ccc2c(c1)[C@H]1O[C@H](CN(C)C)C[C@H]1c1ccccc1O2`, for which the ED50 in the assay with Rattus norvegicus [1] was 1.26 mg/kg; in the assay with Mus musculus, 0.79 mg/kg; in the assay on Rattus norvegicus [2] it was above 2.5 mg/kg; with Rattus norvegicus [3] it was 0.32 mg/kg. This compound also gave a Ki in assay [5] of 22 nM.
With `Brc1ccc2c(c1)[C@H]1O[C@H](Cn3oc4ccc(CN5CCOCC5)cc43)C[C@H]1c1ccccc1O2`, the Ki was 4100 nM in assay [4] and 189 nM in assay [5].
`CCOC(=O)c1ccc2on(C[C@@H]3C[C@H]4c5ccccc5Oc5ccc(Br)cc5[C@H]4O3)c2c1`: the values for the Ki in assay [4] and in assay [5] were 246 nM and 97 nM, respectively.
In turn, `CN(C)C[C@H]1C[C@H]2c3ccccc3Oc3ccc(Br)cc3[C@H]2O1` yielded a Ki in assay [4] of 87 nM.
Take `CN(C)C[C@H]1C[C@H]2c3ccccc3Oc3ccc(F)cc3[C@H]2O1`: the ED50 is 5 mg/kg in the assay with Rattus norvegicus [1], 0.13 mg/kg with Mus musculus, above 2.5 mg/kg in the assay with Rattus norvegicus [2] and 1.98 mg/kg with Rattus norvegicus [3]. Besides, the Ki in assay [4] worked out at 63 nM; in assay [5], 423 nM.
`Cc1ccc2on(C[C@@H]3C[C@H]4c5ccccc5Oc5ccc(Br)cc5[C@H]4O3)c2c1`: the ED50 amounted to 0.5 mg/kg in the assay on Rattus norvegicus [1], 1.99 mg/kg in the assay with Mus musculus, 0.8 mg/kg in the assay on Rattus norvegicus [2] and 0.5 mg/kg in the assay with Rattus norvegicus [3]. Further, the figures for the Ki in assay [4] and in assay [5] were 58 nM and 36 nM, respectively.
For `O=C1CCN1c1ccc2on(C[C@@H]3C[C@H]4c5ccccc5Oc5ccc(Br)cc5[C@H]4O3)c2c1`, the results for the Ki in assay [4] and in assay [5] were 356 nM and 306 nM, respectively.
Consider `CN(C)C[C@H]1C[C@@H]2c3ccccc3Oc3ccccc3[C@H]2O1`, for which the ED50 in the assay with Rattus norvegicus [1], with Mus musculus and with Rattus norvegicus [3] was above 2.5 mg/kg in each case. Moreover, the values for the Ki in assay [4] and in assay [5] were 179 nM and 16 nM, respectively.
For `COc1ccc2c(c1)[C@H]1O[C@@H](CN(C)C)C[C@H]1c1ccccc1O2`, the values for the Ki in assay [4] and in assay [5] were 235 nM and 193 nM, respectively.
On the same counts, the results for `Brc1ccc2c(c1)[C@H]1O[C@H](Cn3oc4ccc(N5CCOCC5)cc43)C[C@H]1c1ccccc1O2` are above 5450 nM and 306 nM.
With `CN(C)C[C@@H]1C[C@H]2c3ccccc3Oc3ccc(Br)cc3[C@H]2O1`, the ED50 with Rattus norvegicus [1] is 0.79 mg/kg; with Mus musculus, 3.15 mg/kg; in the assay with Rattus norvegicus [2], above 2.5 mg/kg; in the assay on Rattus norvegicus [3], 0.32 mg/kg. In addition, affinity in assay [4] was put at a Ki of 6 nM.
For the compound `Nc1ccc2on(C[C@@H]3C[C@H]4c5ccccc5Oc5ccc(Br)cc5[C@H]4O3)c2c1`, the Ki amounted to 270 nM in assay [4] and 255 nM in assay [5].
Take `Brc1ccc2c(c1)[C@H]1O[C@H](Cn3oc4ccc(-c5ccccc5)cc43)C[C@H]1c1ccccc1O2`: the Ki in assay [4] is 183 nM; in assay [5], 307 nM.
For the compound `CN(C)C[C@@H]1C[C@H]2c3ccccc3Oc3ccc(F)cc3[C@H]2O1`, the ED50 in the assay with Rattus norvegicus [1] amounted to 0.5 mg/kg; in the assay with Mus musculus, 0.02 mg/kg; with Rattus norvegicus [2], 0.5 mg/kg; with Rattus norvegicus [3], 0.5 mg/kg. In addition, in assay [5], the affinity, expressed as Ki, was 104 nM.
Regarding `CN(C)C[C@H]1C[C@H]2c3ccccc3Oc3ccccc3[C@@H]2O1`, the ED50 with Rattus norvegicus [1] was above 2.5 mg/kg; with Mus musculus it was 1.25 mg/kg; in the assay on Rattus norvegicus [2], above 2.5 mg/kg; in the assay with Rattus norvegicus [3], 3.15 mg/kg. Further, the Ki in assay [4] was 183 nM; in assay [5], 92 nM.
Regarding `CN(C)C[C@@H]1C[C@H]2c3ccccc3Oc3ccc(Cl)cc3[C@H]2O1`, the ED50 in the assay on Rattus norvegicus [1] was 0.2 mg/kg; in the assay on Mus musculus, 0.5 mg/kg; in the assay with Rattus norvegicus [2], above 2.5 mg/kg; with Rattus norvegicus [3], 0.08 mg/kg.
Turning to `CN(C)c1ccc2on(C[C@@H]3C[C@H]4c5ccccc5Oc5ccc(Br)cc5[C@H]4O3)c2c1`, the Ki in assay [4] worked out at 157 nM; in assay [5] it was 95 nM.
`N#Cc1ccc2on(C[C@@H]3C[C@H]4c5ccccc5Oc5ccc(Br)cc5[C@H]4O3)c2c1`: the values for the Ki in assay [4] and in assay [5] were 183 nM and 185 nM, respectively.

As a reminder, the ED50 is the midpoint of the dose-response relation. As a reminder, the Ki is the dissociation constant of the complex between target and ligand, obtained from inhibition or displacement. A higher Ki goes with a looser hold on the target.
